Molecules are shown by their SMILES.

In assay [1] the target is T1, Jack bean urease (JBU) (Canavalia ensiformis, UniProt P07374).
T1 construct: JBU-type III from Canavalia ensiformis
Kind of assay: ESI-MS urea depletion assay with purchased jack bean urease; standard inhibitor. The assay is classed as biochemical.

In assay [2] the target is T1, Jack bean urease (JBU). Kind of assay: ESI-MS urea depletion assay with purchased jack bean urease. The assay is classed as biochemical.

T1 sequence (P07374 whole entry, looked up): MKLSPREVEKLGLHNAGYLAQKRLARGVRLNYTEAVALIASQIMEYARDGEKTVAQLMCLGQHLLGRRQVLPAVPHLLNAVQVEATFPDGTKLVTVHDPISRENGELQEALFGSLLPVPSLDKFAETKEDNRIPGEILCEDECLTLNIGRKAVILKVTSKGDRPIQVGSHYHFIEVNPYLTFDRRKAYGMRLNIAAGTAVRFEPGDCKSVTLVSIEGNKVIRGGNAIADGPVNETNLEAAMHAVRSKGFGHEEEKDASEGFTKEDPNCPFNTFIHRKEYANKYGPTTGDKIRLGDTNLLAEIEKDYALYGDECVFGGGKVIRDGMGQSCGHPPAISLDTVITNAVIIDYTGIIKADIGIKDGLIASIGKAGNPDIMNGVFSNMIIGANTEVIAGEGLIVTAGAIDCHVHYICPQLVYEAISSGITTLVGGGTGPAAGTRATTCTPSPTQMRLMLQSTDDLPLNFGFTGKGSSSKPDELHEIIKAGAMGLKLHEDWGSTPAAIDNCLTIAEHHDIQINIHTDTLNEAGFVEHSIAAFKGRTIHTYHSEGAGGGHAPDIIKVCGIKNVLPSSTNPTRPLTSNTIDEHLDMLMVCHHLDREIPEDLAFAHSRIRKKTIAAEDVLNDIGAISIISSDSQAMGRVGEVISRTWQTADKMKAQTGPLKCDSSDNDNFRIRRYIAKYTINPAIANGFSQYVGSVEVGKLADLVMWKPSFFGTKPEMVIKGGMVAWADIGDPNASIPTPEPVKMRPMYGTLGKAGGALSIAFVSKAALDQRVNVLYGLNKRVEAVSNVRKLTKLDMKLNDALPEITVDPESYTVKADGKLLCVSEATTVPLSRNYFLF

The IC50 is the concentration at which inhibition is half-maximal. With `CC(=O)NO` [AHA, acetohydroxamic acid], on Jack bean urease (JBU) [1], the half-inhibitory concentration (IC50) turned out to be 3200 nM.
Take `O=C(O)c1ccc(O)c(O)c1` [PCA, 3,4-dihydroxybenzoic acid]: on Jack bean urease (JBU) [2], the half-inhibitory concentration (IC50) was found to be 1700 nM.

The values are drawn from paper PMC6151788, “Biological Evaluation and Molecular Docking of Protocatechuic Acid from Hibiscus sabdariffa L. as a Potent Urease Inhibitor by an ESI-MS Based Method” (Molecules : A Journal of Synthetic Chemistry and Natural …, 2017).
